Tests used:
Lagenaria siceraria [1] = experiment: Phytotoxicity against Lagenaria siceraria 'Emphasis' rootstock seedlings; format: organism-based; details: in vivo
[2] = test system: Cucurbita maxima x Cucurbita moschata; experiment: Phytotoxicity against inter-specific squash hybrid Cucurbita moschata x Cucurbita maxima (Strong tosa) rootstock seedlings; format: organism-based; details: in vivo
Podosphaera xanthii [3] = experiment: (§1) Fungicidal activity against Podosphaera xanthii (powdery mildew) inoculated in inter-specific squash hybrid Strong tosa (Cucurbita moschata x Cucurbita maxima) rootstock seedlings for 7 days prior to drug application assessed as disease severity at 98.2% in 11.99 g/L applied once measured 7 days post-drug dose under greenhouse conditions (water Rvb = 17.5%); format: functional
Podosphaera xanthii [4] = experiment: (§2) Fungicidal activity against Podosphaera xanthii (powdery mildew) inoculated in Lagenaria siceraria Emphasis continuously after first drug application assessed as disease severity on lower surface areas of cotyledons at 98.2% in 11.99 g/L applied thrice at 5-days intervals measured 5 days after third application under green house conditions (water Rvb = 13.9%); format: functional
Podosphaera xanthii [5] = experiment: as §2, with “squash (Cucurbita pepo) rootstock seedlings” for “Lagenaria siceraria Emphasis”, “severity” for “severity on lower surface areas of cotyledons”, “3.9%)” for “13.9%)”; format: functional
Podosphaera xanthii [6] = experiment: as §2, with “upper” for “lower”, “36.8%)” for “13.9%)”; format: functional
Podosphaera xanthii [7] = experiment: Fungicidal activity against Podosphaera xanthii (powdery mildew) inoculated in inter-specific squash hybrid Strong tosa (Cucurbita moschata x Cucurbita maxima) rootstock seedlings for 7 days prior to drug application assessed as incidence of disease symptoms on hypocotyls or upper or lower sides of cotyledons at 98.2% in 11.99 g/L applied once measured 7 days post-drug dose under greenhouse …; format: functional
Podosphaera xanthii [8] = experiment: Fungicidal activity against Podosphaera xanthii (powdery mildew) inoculated in squash (Cucurbita pepo) rootstock seedlings continuously after first drug application assessed as incidence of disease symptoms on hypocotyls or upper or lower sides of cotyledons at 98.2% in 11.99 g/L applied thrice at 5-days intervals measured 5 days after third application under green house conditions (water Rvb = …; format: functional
Podosphaera xanthii [9] = experiment: as §1, with “severity on upper surface areas of cotyledonsat” for “severity at”, “= 10.2%)” for “= 17.5%)”; format: functional
Podosphaera xanthii [10] = experiment: as §2, with “severity” for “severity on lower surface areas of cotyledons”, “53.5%)” for “13.9%)”; format: functional
Podosphaera xanthii [11] = experiment: (§3) Fungicidal activity against Podosphaera xanthii (powdery mildew) inoculated in Lagenaria siceraria Emphasis continuously after first drug application assessed as incidence of disease symptoms on hypocotyls or upper or lower sides of cotyledons at 98.2% in 11.99 g/L applied thrice at 5-days intervals measured 5 days after third application under green house conditions (water Rvb = 100%); format: functional
[12] = test system: Cucurbita maxima x Cucurbita moschata; experiment: Phytotoxicity against inter-specific squash hybrid Cucurbita moschata x Cucurbita maxima (Strong tosa) rootstock seedlings assessed as stunting; format: organism-based; details: in vivo
Lagenaria siceraria [13] = experiment: Phytotoxicity against Lagenaria siceraria 'Emphasis' rootstock seedlings assessed as stunting; format: organism-based; details: in vivo
Podosphaera xanthii [14] = experiment: as §1, with “severity on lower surface areas of cotyledonsat” for “severity at”, “= 5.1%)” for “= 17.5%)”; format: functional
Lagenaria siceraria [15] = experiment: Phytotoxicity against Lagenaria siceraria 'Emphasis' rootstock seedlings assessed as seedlings with stunted growth; format: organism-based; details: in vivo
[16] = test system: Cucurbita maxima x Cucurbita moschata; experiment: Phytotoxicity against inter-specific squash hybrid Cucurbita moschata x Cucurbita maxima (Strong tosa) rootstock seedlings assessed as seedlings with stunted growth; format: organism-based; details: in vivo
Lagenaria siceraria [17] = experiment: Phytotoxicity against Lagenaria siceraria 'Emphasis' rootstock seedlings assessed as stunted growth; format: organism-based; details: in vivo
[18] = test system: Cucurbita maxima x Cucurbita moschata; experiment: Phytotoxicity against inter-specific squash hybrid Cucurbita moschata x Cucurbita maxima (Strong tosa) rootstock seedlings assessed as stunted growth; format: organism-based; details: in vivo
Podosphaera xanthii [19] = experiment: as §2, with “38.7%” for “98.2%”, “0.62 ml/L” for “11.99 g/L”; format: functional
Podosphaera xanthii [20] = experiment: as §1, with “38.7%” for “98.2%”, “0.62 ml/L” for “11.99 g/L”; format: functional
Podosphaera xanthii [21] = experiment: as §2, with “upper” for “lower”, “38.7%” for “98.2%”, “0.62 ml/L” for “11.99 g/L”, “36.8%)” for “13.9%)”; format: functional
Podosphaera xanthii [22] = experiment: (§4) Fungicidal activity against Podosphaera xanthii (powdery mildew) inoculated in inter-specific squash hybrid Strong tosa (Cucurbita moschata x Cucurbita maxima) rootstock seedlings continuously after first drug application assessed as disease severity at 38.7% in 0.62 ml/L applied thrice at 5-days intervals measured 5 days after third application under green house conditions (water Rvb = 4.2%); format: functional
Podosphaera xanthii [23] = experiment: Fungicidal activity against Podosphaera xanthii (powdery mildew) inoculated in inter-specific squash hybrid Strong tosa (Cucurbita moschata x Cucurbita maxima) rootstock seedlings for 7 days prior to drug application assessed as incidence of disease symptoms on hypocotyls or upper or lower sides of cotyledons at 38.7% in 0.62 ml/L applied once measured 7 days post-drug dose under greenhouse …; format: functional
Podosphaera xanthii [24] = experiment: as §4, with “in” for “in inter-specific”, “squash” for “squash hybrid Strong tosa”, “pepo)” for “moschata x Cucurbita maxima)”, “3.9%)” for “4.2%)”; format: functional
Podosphaera xanthii [25] = experiment: Fungicidal activity against Podosphaera xanthii (powdery mildew) inoculated in inter-specific squash hybrid Strong tosa (Cucurbita moschata x Cucurbita maxima) rootstock seedlings continuously after first drug application assessed as incidence of disease symptoms on hypocotyls or upper or lower sides of cotyledons at 38.7% in 0.62 ml/L applied thrice at 5-days intervals measured 5 days after …; format: functional
Podosphaera xanthii [26] = experiment: Fungicidal activity against Podosphaera xanthii (powdery mildew) inoculated in squash (Cucurbita pepo) rootstock seedlings continuously after first drug application assessed as incidence of disease symptoms on hypocotyls or upper or lower sides of cotyledons at 38.7% in 0.62 ml/L applied thrice at 5-days intervals measured 5 days after third application under green house conditions (water Rvb = …; format: functional
Podosphaera xanthii [27] = experiment: as §1, with “on upper surface areas of cotyledonsat 38.7%” for “at 98.2%”, “0.62 ml/L” for “11.99 g/L”, “10.2%)” for “17.5%)”; format: functional
Podosphaera xanthii [28] = experiment: as §2, with “severity” for “severity on lower surface areas of cotyledons”, “38.7%” for “98.2%”, “0.62 ml/L” for “11.99 g/L”, “53.5%)” for “13.9%)”; format: functional
Podosphaera xanthii [29] = experiment: as §3, with “38.7%” for “98.2%”, “0.62 ml/L” for “11.99 g/L”; format: functional
Podosphaera xanthii [30] = experiment: as §1, with “on lower surface areas of cotyledonsat 38.7%” for “at 98.2%”, “0.62 ml/L” for “11.99 g/L”, “5.1%)” for “17.5%)”; format: functional
Podosphaera xanthii [31] = experiment: as §1, with “on upper surface areas of cotyledonsat 45%” for “at 98.2%”, “0.6” for “11.99”, “10.2%)” for “17.5%)”; format: functional
Podosphaera xanthii [32] = experiment: as §1, with “45%” for “98.2%”, “0.6” for “11.99”; format: functional
Podosphaera xanthii [33] = experiment: Fungicidal activity against Podosphaera xanthii (powdery mildew) inoculated in inter-specific squash hybrid Strong tosa (Cucurbita moschata x Cucurbita maxima) rootstock seedlings for 7 days prior to drug application assessed as incidence of disease symptoms on hypocotyls or upper or lower sides of cotyledons at 45% in 0.6 g/L applied once measured 7 days post-drug dose under greenhouse …; format: functional
Podosphaera xanthii [34] = experiment: (§5) Fungicidal activity against Podosphaera xanthii (powdery mildew) inoculated in squash (Cucurbita pepo) rootstock seedlings continuously after first drug application assessed as disease severity at 45% in 0.6 g/L applied thrice at 5-days intervals measured 5 days after third application under green house conditions (water Rvb = 3.9%); format: functional
Podosphaera xanthii [35] = experiment: Fungicidal activity against Podosphaera xanthii (powdery mildew) inoculated in squash (Cucurbita pepo) rootstock seedlings continuously after first drug application assessed as incidence of disease symptoms on hypocotyls or upper or lower sides of cotyledons at 45% in 0.6 g/L applied thrice at 5-days intervals measured 5 days after third application under green house conditions (water Rvb = …; format: functional
Podosphaera xanthii [36] = experiment: as §1, with “on lower surface areas of cotyledonsat 45%” for “at 98.2%”, “0.6” for “11.99”, “rvb” for “Rvb”, “5.1%)” for “17.5%)”; format: functional
Podosphaera xanthii [37] = experiment: as §1, with “46.1%” for “98.2%”, “1.50” for “11.99”; format: functional, organism-based
Podosphaera xanthii [38] = experiment: as §5, with “46.1%” for “45%”, “1.50” for “0.6”; format: functional, organism-based
Podosphaera xanthii [39] = experiment: Fungicidal activity against Podosphaera xanthii (powdery mildew) inoculated in inter-specific squash hybrid Strong tosa (Cucurbita moschata x Cucurbita maxima) rootstock seedlings for 7 days prior to drug application assessed as incidence of disease symptoms on hypocotyls or upper or lower sides of …; format: functional, organism-based
Podosphaera xanthii [40] = experiment: Fungicidal activity against Podosphaera xanthii (powdery mildew) inoculated in squash (Cucurbita pepo) rootstock seedlings continuously after first drug application assessed as incidence of disease symptoms on hypocotyls or upper or lower sides of cotyledons at 46.1% in 1.50 g/L applied thrice at …; format: functional, organism-based
Podosphaera xanthii [41] = experiment: as §1, with “on lower surface areas of cotyledonsat 46.1%” for “at 98.2%”, “1.50” for “11.99”, “5.1%)” for “17.5%)”; format: functional, organism-based
Podosphaera xanthii [42] = experiment: as §1, with “on upper surface areas of cotyledonsat 46.1%” for “at 98.2%”, “1.50” for “11.99”, “10.2%)” for “17.5%)”; format: functional, organism-based

Compound: S1SSSSSSS1 [SULFUR]
- Activity (Lagenaria siceraria [1]): Non-toxic
- Activity [2]: Non-toxic
- Activity (Podosphaera xanthii [3]): 0.9%
- Activity (Podosphaera xanthii [4]): 0.7%
- Activity (Podosphaera xanthii [5]): 0.02%
- Activity (Podosphaera xanthii [6]): 3%
- Activity (Podosphaera xanthii [7]): 14.6%
- Activity (Podosphaera xanthii [8]): 0%
- Activity (Podosphaera xanthii [9]): 0.03%
- Activity (Podosphaera xanthii [10]): 3.7%
- Activity (Podosphaera xanthii [11]): 34.9%
- Activity [12]: Non-toxic
- Activity (Lagenaria siceraria [13]): Non-toxic
- Activity (Podosphaera xanthii [14]): 0.7%

Compound: CC(C)(C)C(O)(CCc1ccc(Cl)cc1)Cn1cncn1 (stereo not drawn) [TEBUCONAZOLE]
- Activity (Lagenaria siceraria [15]): 100%
- Activity [16]: 71%
- inhibition (INH) (Lagenaria siceraria [17]): 33%
- inhibition (INH) [18]: 33%
- Activity (Podosphaera xanthii [19]): 0%
- Activity (Podosphaera xanthii [20]): 0.5%
- Activity (Podosphaera xanthii [21]): 0.5%
- Activity (Podosphaera xanthii [22]): 0.005%
- Activity (Podosphaera xanthii [23]): 34.9%
- Activity (Podosphaera xanthii [24]): 0%
- Activity (Podosphaera xanthii [25]): 0%
- Activity (Podosphaera xanthii [26]): 0%
- Activity (Podosphaera xanthii [27]): 0.2%
- Activity (Podosphaera xanthii [28]): 0.7%
- Activity (Podosphaera xanthii [29]): 5.6%
- Activity (Podosphaera xanthii [30]): 0.2%

Compound: COC(=O)NC(=S)Nc1ccccc1NC(=S)NC(=O)OC [THIOPHANATE METHYL]
- Activity (Lagenaria siceraria [1]): Non-toxic
- Activity [2]: Non-toxic
- Activity (Podosphaera xanthii [31]): 3.9%
- Activity (Podosphaera xanthii [32]): 7.4%
- Activity (Podosphaera xanthii [33]): 85.4%
- Activity (Podosphaera xanthii [34]): 3.2%
- Activity (Podosphaera xanthii [35]): 90.8%
- Activity (Podosphaera xanthii [36]): 3%

Compound: COPPER HYDROXIDE [listing 1 of 2 here]
- Activity (Lagenaria siceraria [1]): Non-toxic
- Activity [2]: Non-toxic
- Activity [12]: Non-toxic
- Activity (Lagenaria siceraria [13]): Non-toxic

Compound: COPPER HYDROXIDE [listing 2 of 2 here]
- Activity (Podosphaera xanthii [37]): 13.6%
- Activity (Podosphaera xanthii [38]): 0.21%
- Activity (Podosphaera xanthii [39]): 97.7%
- Activity (Podosphaera xanthii [40]): 9.2%
- Activity (Podosphaera xanthii [41]): 4.3%
- Activity (Podosphaera xanthii [42]): 8.2%

From ChEMBL document CHEMBL3044926, “Controlling powdery mildew on cucurbit rootstock seedlings in the greenhouse with fungicides and biofungicides” (Crop Prot, 2012)
